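Grown in 96-well plates, cells were treated for 48 hours with each compound at five concentrations. Insufficient inhibition: endpoint recorded as highest concentration tested. TGI is the concentration that stops growth completely.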 Some results are limits rather than exact numbers.

Among the test systems are 786-0 renal; CCRF-CEM leukemia; DU-145 prostate; EKVX NSCLC; HCT-15 colon; HOP-92 NSCLC; IGROV1 ovarian; MDA-N; MOLT-4 leukemia; NCI-H226 lung; NCI-H23 lung; SNB-19 CNS; UO-31 renal; DLD-1 colon; M19-MEL melanoma.
Assay in all cases: NCI tumour cell line growth inhibition, 48 h

For `Cc1sc2ncnc(NCCc3ccccc3)c2c1C`, the TGI in the test on 786-0 renal turned out to be 45.7 µM; in the test on CCRF-CEM leukemia it was 49.3 µM; with DU-145 prostate, 70.9 µM; in the test on EKVX NSCLC it was 13.9 µM; with HCT-15 colon it was 87.7 µM; in the test on HOP-92 NSCLC it was 15.5 µM. In addition, the TGI is 32.5 µM in the test on IGROV1 ovarian; 23.8 µM with MDA-N; 63.8 µM in the test on MOLT-4 leukemia; 42.3 µM in the test with NCI-H226 lung; 36 µM with NCI-H23 lung; greater than 100 µM in the test with SNB-19 CNS. The compound also returned a TGI in the test with UO-31 renal of 38.8 µM.

Consider `COc1ccc2c(OC)c3ccoc3nc2c1O`, for which the TGI in the test on 786-0 renal, with CCRF-CEM leukemia, in the test on DLD-1 colon, in the test on EKVX NSCLC, in the test on HCT-15 colon and in the test with IGROV1 ovarian was greater than 100 µM each time. The TGI with M19-MEL melanoma, in the test on MOLT-4 leukemia, in the test on NCI-H23 lung, in the test with SNB-19 CNS and in the test with UO-31 renal was greater than 100 µM in each case.

With `O=c1nc2n(CCO)c(-c3ccccc3)c(-c3ccccc3)nc-2c(=O)[nH]1`, the TGI with 786-0 renal, in the test on CCRF-CEM leukemia, with DU-145 prostate, in the test on EKVX NSCLC, with HCT-15 colon and in the test with HOP-92 NSCLC was greater than 100 µM each time. Further, the TGI in the test on IGROV1 ovarian, in the test with MDA-N, in the test with MOLT-4 leukemia, in the test with NCI-H226 lung, with NCI-H23 lung and in the test with SNB-19 CNS was greater than 100 µM each time. The compound further returned a TGI in the test on UO-31 renal greater than 100 µM.

Take `CCN(CC)c1ccc(/C=C/C2=NN(c3cccc(S(=O)(=O)O)c3)C3(C2)C(Cl)C(=O)N3c2nc3ccccc3s2)cc1` (stereo not drawn): the TGI came to 15.9 µM with 786-0 renal; 4.47 µM in the test with CCRF-CEM leukemia; 25.2 µM in the test on DU-145 prostate; 39.2 µM in the test on EKVX NSCLC; 24.1 µM in the test with HCT-15 colon; 15.3 µM in the test on HOP-92 NSCLC. The TGI is 17 µM in the test on IGROV1 ovarian; 30 µM in the test with MDA-N; 13.9 µM with MOLT-4 leukemia; 34.2 µM in the test on NCI-H226 lung; 22.8 µM with NCI-H23 lung; 29.7 µM with SNB-19 CNS. This compound also showed a TGI with UO-31 renal of 3.6 µM.

As for `COc1ccc(/C=C2/C(=O)N(C(=O)c3ccc(Cl)cc3)N=C2C)cc1OC`, the TGI in the test with 786-0 renal, with CCRF-CEM leukemia, with DLD-1 colon, in the test on EKVX NSCLC, in the test on HCT-15 colon and in the test with HOP-92 NSCLC was greater than 100 µM each time. Besides, the TGI with IGROV1 ovarian, with M19-MEL melanoma, in the test on NCI-H23 lung, in the test with SNB-19 CNS and with UO-31 renal was greater than 100 µM each time.

With `COc1cc(C2c3cccc4cccc(c34)C3CCC(=O)N32)cc(O)c1O` (stereo not drawn), the TGI in the test on 786-0 renal was greater than 50 µM; in the test on CCRF-CEM leukemia, 31.4 µM; with DU-145 prostate it was greater than 50 µM; in the test on EKVX NSCLC, greater than 50 µM; in the test with HCT-15 colon, greater than 50 µM; in the test on HOP-92 NSCLC, greater than 50 µM. Further, the TGI in the test on IGROV1 ovarian was greater than 50 µM; in the test with MDA-N, greater than 50 µM; in the test on MOLT-4 leukemia, 41.6 µM; with NCI-H226 lung, greater than 50 µM; in the test on NCI-H23 lung, greater than 50 µM; with SNB-19 CNS, greater than 50 µM. The TGI with UO-31 renal was greater than 50 µM.

For the compound `O=C(CCN(CCO)CCO)Nc1ccc2c(c1)C(=O)c1ccc(NC(=O)CCN(CCO)CCO)cc1C2=O`, the TGI with 786-0 renal was 32 µM; with CCRF-CEM leukemia it was 39.5 µM; in the test on EKVX NSCLC, 55 µM; with HCT-15 colon, 19.8 µM; in the test on HOP-92 NSCLC it was greater than 100 µM; with IGROV1 ovarian, 50.7 µM. In addition, the TGI in the test with M19-MEL melanoma is 26.6 µM; in the test with MOLT-4 leukemia it was 44.9 µM; with NCI-H226 lung, 44.2 µM; in the test on NCI-H23 lung, greater than 100 µM; with SNB-19 CNS, 86.3 µM; with UO-31 renal, 22.1 µM.

In the case of `COc1ccc(NC=O)c(C(O)CCNC(C)=O)c1` (stereo not drawn), the TGI with 786-0 renal, in the test with CCRF-CEM leukemia, with DU-145 prostate, in the test with EKVX NSCLC, in the test with HCT-15 colon and with HOP-92 NSCLC was greater than 100 µM each time. The TGI in the test on IGROV1 ovarian, in the test with MDA-N, in the test with MOLT-4 leukemia, with NCI-H226 lung, in the test with NCI-H23 lung and with SNB-19 CNS was greater than 100 µM throughout. Moreover, the TGI in the test with UO-31 renal is greater than 100 µM.

For `COc1ccc(NC(=O)C2=C(SC)C(C#N)C(=O)N=C2N)cc1` (stereo not drawn), the TGI is greater than 100 µM in the test on 786-0 renal; greater than 100 µM with CCRF-CEM leukemia; greater than 100 µM in the test with DU-145 prostate; greater than 100 µM with EKVX NSCLC; greater than 100 µM with HCT-15 colon; 69.8 µM with HOP-92 NSCLC. For the same compound, the TGI with IGROV1 ovarian, in the test with MDA-N, with MOLT-4 leukemia, in the test on NCI-H226 lung, in the test with NCI-H23 lung and in the test on SNB-19 CNS was greater than 100 µM throughout. The same compound displayed a TGI in the test with UO-31 renal greater than 100 µM.

As for `CCCCCCCCCC(=O)OCC1(CO)C/C(=C/CC(C(C)C)C(C)C)C(=O)O1` (stereo not drawn), the TGI was greater than 100 µM in the test on 786-0 renal; 73.1 µM with CCRF-CEM leukemia; greater than 100 µM in the test on DU-145 prostate; greater than 100 µM with EKVX NSCLC; greater than 100 µM with HCT-15 colon; greater than 100 µM in the test with HOP-92 NSCLC. For the same compound, the TGI in the test on IGROV1 ovarian is greater than 100 µM; with MDA-N it was greater than 100 µM; in the test on MOLT-4 leukemia it was 54 µM; with NCI-H226 lung it was greater than 100 µM; with NCI-H23 lung it was greater than 100 µM; in the test on SNB-19 CNS it was greater than 100 µM. This compound also returned a TGI in the test on UO-31 renal of 95.8 µM.

For the compound `Nc1ncc2c(n1)-c1ccccc1OC2NC1CC1` (stereo not drawn), the TGI in the test with 786-0 renal, with CCRF-CEM leukemia, in the test on DU-145 prostate, with EKVX NSCLC, in the test with HCT-15 colon and with HOP-92 NSCLC was greater than 100 µM throughout. Moreover, the TGI in the test with IGROV1 ovarian, in the test on MDA-N, in the test with MOLT-4 leukemia, in the test with NCI-H226 lung, in the test on NCI-H23 lung and with SNB-19 CNS was greater than 100 µM throughout. Besides, the TGI with UO-31 renal is greater than 100 µM.

The values are drawn from PubChem BioAssay (NCI).
